Measurements from ChEMBL document CHEMBL1201862, “PubChem BioAssay data set” (2004).
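The compound was tested at five concentrations on cells cultured in 96-well plates, with a 48-hour exposure period. Here, GI50 denotes the concentration required for 50% inhibition of growth.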 Active and inactive are the calls of the source. Cut-off read from the data, not from the text of the source: active = GI50 up to about 1.1 µM and inactive = higher.

Tests used:
Experiment in all cases: NCI anticancer screen, dose series, 48 h
A498 = tested on: A498
ACHN = tested on: ACHN
CCRF-CEM = tested on: CCRF-CEM
DU-145 = tested on: DU-145
HCC 2998 = tested on: HCC 2998
Hs-578T = tested on: Hs-578T
K562 = tested on: K562
MDA-N = tested on: MDA-N
Malme-3M = tested on: Malme-3M
NCI-H226 = tested on: NCI-H226
NCI-H460 = tested on: NCI-H460
NCI/ADR-RES = tested on: NCI/ADR-RES
SK-MEL-2 = tested on: SK-MEL-2
SNB-19 = tested on: SNB-19
TK-10 = tested on: TK-10
UACC-62 = tested on: UACC-62
UO-31 = tested on: UO-31
HL-60 = tested on: HL-60

Compound | GI50 (A498) | GI50 (ACHN) | GI50 (CCRF-CEM) | GI50 (DU-145) | GI50 (HCC 2998) | GI50 (Hs-578T) | GI50 (K562) | GI50 (MDA-N) | GI50 (Malme-3M) | GI50 (NCI-H226) | GI50 (NCI-H460) | GI50 (NCI/ADR-RES) | GI50 (SK-MEL-2) | GI50 (SNB-19) | GI50 (TK-10) | GI50 (UACC-62) | GI50 (UO-31) | GI50 (HL-60)
CCOC(=O)/C=C/C1OC(C)(C)OC1/C=C/C(=O)OCC (stereo not drawn) | 42 µM (inactive) | 38.4 µM (inactive) | 17.2 µM (inactive) | 34.8 µM (inactive) | 23.2 µM (inactive) | 37.8 µM (inactive) | 21.4 µM (inactive) | 35.1 µM (inactive) | 39.8 µM (inactive) | > 100 µM (inactive) | 21.2 µM (inactive) | 32.7 µM (inactive) | 81.5 µM (inactive) | 33.9 µM (inactive) | 39.3 µM (inactive) | 39.9 µM (inactive) | > 100 µM (inactive) | –
CCC1c2[nH]c3ccccc3c2C[C@H]2C(=O)NC(CCCCNC(=O)OC(C)(C)C)C(=O)N12 (stereo partly drawn) | 52.8 µM (inactive) | 35.9 µM (inactive) | – | 48.4 µM (inactive) | – | 19.7 µM (inactive) | 35.8 µM (inactive) | 20.7 µM (inactive) | 18 µM (inactive) | > 100 µM (inactive) | 30.1 µM (inactive) | 25.7 µM (inactive) | 26.6 µM (inactive) | 44.2 µM (inactive) | 33.6 µM (inactive) | 20.5 µM (inactive) | 34.6 µM (inactive) | 31.8 µM (inactive)
O=C(c1ccc(Cl)cc1)N(C(=S)OCc1ccccn1)c1ccccc1 | > 100 µM (inactive) | 70.6 µM (inactive) | 43.6 µM (inactive) | 58.6 µM (inactive) | – | > 100 µM (inactive) | 48.1 µM (inactive) | > 100 µM (inactive) | 61.1 µM (inactive) | 33.7 µM (inactive) | – | 39 µM (inactive) | > 100 µM (inactive) | > 100 µM (inactive) | 88.1 µM (inactive) | > 100 µM (inactive) | 31 µM (inactive) | 28.8 µM (inactive)
CCOP(=O)(OCC)C1(O)CC(n2cc(C)c(=O)[nH]c2=O)OC1CO (stereo not drawn) | > 100 µM (inactive) | > 100 µM (inactive) | – | > 100 µM (inactive) | > 100 µM (inactive) | > 100 µM (inactive) | > 100 µM (inactive) | > 100 µM (inactive) | > 100 µM (inactive) | > 100 µM (inactive) | > 100 µM (inactive) | > 100 µM (inactive) | > 100 µM (inactive) | > 100 µM (inactive) | > 100 µM (inactive) | > 100 µM (inactive) | > 100 µM (inactive) | > 100 µM (inactive)
O=C(NCCCCCCNC(=O)c1cccc2ccccc12)Nc1cccc2ccccc12 | > 100 µM (inactive) | > 100 µM (inactive) | > 100 µM (inactive) | > 100 µM (inactive) | > 100 µM (inactive) | > 100 µM (inactive) | > 100 µM (inactive) | > 100 µM (inactive) | > 100 µM (inactive) | – | > 100 µM (inactive) | > 100 µM (inactive) | > 100 µM (inactive) | > 100 µM (inactive) | > 100 µM (inactive) | > 100 µM (inactive) | 45.7 µM (inactive) | > 100 µM (inactive)
Oc1c(Br)cc(CN(Cc2cc(Br)c(O)c(Br)c2)C2CCCCC2)cc1Br | > 100 µM (inactive) | > 100 µM (inactive) | > 100 µM (inactive) | > 100 µM (inactive) | – | > 100 µM (inactive) | > 100 µM (inactive) | > 100 µM (inactive) | > 100 µM (inactive) | > 100 µM (inactive) | – | > 100 µM (inactive) | > 100 µM (inactive) | > 100 µM (inactive) | > 100 µM (inactive) | > 100 µM (inactive) | > 100 µM (inactive) | > 100 µM (inactive)
CC(C)(C)OC(=O)N1C(C2=COc3ccccc3O2)=COc2cccnc21 | 1.71 µM (inactive) | 1.65 µM (inactive) | – | 1.33 µM (inactive) | 1.69 µM (inactive) | 3.64 µM (inactive) | 1.99 µM (inactive) | 1.99 µM (inactive) | 1.45 µM (inactive) | 1.71 µM (inactive) | 1.74 µM (inactive) | 2 µM (inactive) | 1.94 µM (inactive) | 2.04 µM (inactive) | 2.75 µM (inactive) | 1.58 µM (inactive) | 1.64 µM (inactive) | 1.8 µM (inactive)
CCCN(CCC)C(=S)N/N=C/c1cccc(C)n1 | 0.233 µM (active) | 0.177 µM (active) | < 0.01 µM (active) | 0.321 µM (active) | – | 2.16 µM (inactive) | < 0.01 µM (active) | 0.621 µM (active) | 0.697 µM (active) | 0.129 µM (active) | 0.159 µM (active) | < 0.01 µM (active) | 0.594 µM (active) | 0.533 µM (active) | 0.142 µM (active) | 0.303 µM (active) | 0.177 µM (active) | < 0.01 µM (active)
